Patent US9856511B2, “Protease deubiquitinating inhibitor screening” (priority 2011, dated 2018)

Tests used:
[1] = system: HCT-116 Bcl-2+ colon carcinoma; experiment: Disease free survival of nude mice challenged with HCT-116 Bcl-2+ cells; assay type: in vivo; details: 5 mg/kg 4-5 times weekly for 3 weeks; log-rank P=0.0136
Description: (§1) Animal experiments were conducted in full accordance with Swedish governmental statutory regulations on animal welfare under permission from local ethical committees. Animals were housed at a max of five per cage and provided with sterile water and food ad libitum. All mice were monitored and weighed daily. For the head and neck carcinoma model a 100-μl cell suspension containing 1×10^6 FaDu cells was injected subcutaneously into the right rear flank of the animals. After injection, tumor growth was measured daily with calipers and the tumor volume calculated by the formula […]. When tumors had grown to a size of approximately 200 mm^3 (Day 0) mice were randomized to receive either vehicle (n=10) or b-AP15 5 mg/kg^−1 by subcutaneous injection s.c. (n=15) daily. […] Nineteen days after malignant cell injection all of the mice were killed and histopathological manifestations of liver, ovary (target organs for this model of tumor) were evaluated and compared between groups. […]
(§2) SCID mice bearing FaDu human tumor xenografts were randomized at tumor take (200 mm^3) and treated by daily subcutaneous injection with either vehicle (n=10) or 5 mg kg^−1 b-AP15 (n=15) for 10 days. […] Mice were treated with vehicle (n=6) or 5 mg kg^−1 b-AP15 (n=6) 4-5 times weekly for 3 weeks and monitored for tumor onset (log-rank, P=0.0136, hazard ratio=7.9). […]

C1498 AML cells = experiment: C1498 AML model in C57BL/6J mice, histopathology of liver and ovary; assay type: in vivo; details: 5 mg/kg i.p. for 7 days
Description: as §1, §2

chaperone genes = experiment: Microarray expression of chaperone genes after b-AP15 treatment; assay type: cell-based; details: b-AP15 vs vehicle
Description: The microarray based gene expression analysis and the Connectivity Map (CMAP) analysis was performed as previously described (40). Briefly, MCF7 cells were exposed to b-AP15 (1 μM, 6 h) or vehicle (0.1% DMSO, 6 h). RNA was isolated (RNeasy miniprep kit, Qiagen) followed by quality control, labelling and hybridization to Genome U133 Plus 2.0 arrays (Affymetrix Inc). Raw data was normalized using Mas5 (Affymetrix Inc.) and rank ordered. For selection of the 30 most induced (up tags) and the 30 most suppressed (down tags) transcripts the following criteria were used: Up tags, present call and expression over 300 arbitrary in the b-AP15 experiment; Down tags, present call after both b-AP15 and vehicle treatment, and expression over 300 arbitrary units in the vehicle experiment. For CMAP compatibility only tags (i.e. probes) present on HG U133A were used. Raw and normalized expression data have been deposited at Gene Expression Omnibus (http://www.ncbi.nlm.nih.gov/geo/) with accession number GSE24150.
Expression of chaperone genes observed in bAP15-treated cells (Table 1) is indicative of induction of a proteotoxic response.

C=CC(=O)N1C/C(=C\c2ccc([N+](=O)[O-])cc2)C(=O)/C(=C/c2ccc([N+](=O)[O-])cc2)C1 [b-AP15]
disease free survival (tumor onset), hazard ratio [1]: 7.9 | AML infiltration in liver and ovary (C1498 AML cells): few infiltrated blasts and normal morphology | Fold change HSPA6 (chaperone genes; probe set 117_at): 725 | Fold change DNAJB1 (chaperone genes; probe set 200666_s_at): 6 | Fold change HSPA1A (chaperone genes; probe set 200800_s_at): 4 | Fold change DNAJA1 (chaperone genes; probe set 200880_at): 4 | Fold change HSPA1B (chaperone genes; probe set 202581_at): 5 | Fold change DNAJB9 (chaperone genes; probe set 202843_at): 4 | Fold change DNAJB4 (chaperone genes; probe set 203810_at): 16 | Fold change DNAJB4 (chaperone genes; probe set 203811_s_at): 5 | Fold change HSPA4L (chaperone genes; probe set 205543_at): 13 | Fold change HSPH1 (chaperone genes; probe set 206976_s_at): 5 | Fold change HSPA4 (chaperone genes; probe set 211016_x_at): 4 | Fold change DNAJA4 (chaperone genes; probe set 225061_at): 30 | Fold change HSPD1 (chaperone genes; probe set 241716_at): 6
